Experimental data as given in ChEMBL document CHEMBL1201862, “PubChem BioAssay data set” (2004).
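A five-concentration, 48-hour dose response in 96-well plates underlies each endpoint, interpolated linearly between surrounding concentrations. GI50 = concentration required for 50% inhibition of growth.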 Calls of active or inactive are those of the source. Cut-off read from the data, not from the text of the source: active = GI50 up to about 1.1 µM and inactive = higher.

Assays:
Experiment in all cases: growth of human tumour cells (NCI), 48 h
NCI/ADR-RES = tested on: NCI/ADR-RES
HOP-62 = tested on: HOP-62
NCI-H460 = tested on: NCI-H460
LOX IMVI = tested on: LOX IMVI
DU-145 = tested on: DU-145
Hs-578T = tested on: Hs-578T
SK-MEL-28 = tested on: SK-MEL-28
SN12C = tested on: SN12C
A498 = tested on: A498
UO-31 = tested on: UO-31
SR = tested on: SR
U-251 = tested on: U-251
SF-268 = tested on: SF-268
A549 = tested on: A549
UACC-257 = tested on: UACC-257
COLO 205 = tested on: COLO 205
MCF7 = tested on: MCF7
OVCAR-3 = tested on: OVCAR-3
SNB-19 = tested on: SNB-19
NCI-H226 = tested on: NCI-H226

## Cn1c(N/N=C/c2ccccc2)nc(-c2ccc([N+](=O)[O-])cc2)c(C#N)c1=O
NCI/ADR-RES
  GI50: 86.3 µM (inactive)
HOP-62
  GI50: 77.8 µM (inactive)
NCI-H460
  GI50: 32.1 µM (inactive)
LOX IMVI
  GI50: 61.8 µM (inactive)
DU-145
  GI50: 34.7 µM (inactive)
Hs-578T
  GI50: 55.1 µM (inactive)
SK-MEL-28
  GI50: > 100 µM (inactive)
SN12C
  GI50: 47.2 µM (inactive)
A498
  GI50: 65.8 µM (inactive)
UO-31
  GI50: 43.6 µM (inactive)
SR
  GI50: 2.63 µM (inactive)
U-251
  GI50: 66.1 µM (inactive)
SF-268
  GI50: 39.7 µM (inactive)
A549
  GI50: 28.8 µM (inactive)
UACC-257
  GI50: 50 µM (inactive)
COLO 205
  GI50: 44.2 µM (inactive)
MCF7
  GI50: 13.1 µM (inactive)
OVCAR-3
  GI50: 20.5 µM (inactive)
SNB-19
  GI50: > 100 µM (inactive)

## CC(C)(C)OC(=O)N1C(OP(=O)(Oc2ccccc2)Oc2ccccc2)=COc2cccnc21
NCI/ADR-RES
  GI50: 40.7 µM (inactive)
HOP-62
  GI50: 60.5 µM (inactive)
NCI-H226
  GI50: 69.8 µM (inactive)
NCI-H460
  GI50: 31.8 µM (inactive)
LOX IMVI
  GI50: 26.1 µM (inactive)
DU-145
  GI50: > 100 µM (inactive)
Hs-578T
  GI50: 86.5 µM (inactive)
SK-MEL-28
  GI50: 54.2 µM (inactive)
SN12C
  GI50: 70.1 µM (inactive)
UO-31
  GI50: 42.9 µM (inactive)
SR
  GI50: 27.3 µM (inactive)
U-251
  GI50: 40.5 µM (inactive)
SF-268
  GI50: 63.2 µM (inactive)
A549
  GI50: 46.6 µM (inactive)
UACC-257
  GI50: 30 µM (inactive)
COLO 205
  GI50: 34.8 µM (inactive)
MCF7
  GI50: 32.7 µM (inactive)
OVCAR-3
  GI50: 72.3 µM (inactive)
SNB-19
  GI50: 78.9 µM (inactive)

## OC(CC(O)(C(F)(F)Cl)C(F)(F)Cl)c1ccccc1 (centres undefined)
NCI/ADR-RES
  GI50: > 10 µM (inactive)
HOP-62
  GI50: > 10 µM (inactive)
NCI-H226
  GI50: > 10 µM (inactive)
NCI-H460
  GI50: > 10 µM (inactive)
LOX IMVI
  GI50: > 10 µM (inactive)
DU-145
  GI50: > 10 µM (inactive)
Hs-578T
  GI50: > 10 µM (inactive)
SK-MEL-28
  GI50: > 10 µM (inactive)
SN12C
  GI50: > 10 µM (inactive)
A498
  GI50: 0.0107 µM (active)
SR
  GI50: > 10 µM (inactive)
U-251
  GI50: > 10 µM (inactive)
SF-268
  GI50: > 10 µM (inactive)
A549
  GI50: > 10 µM (inactive)
UACC-257
  GI50: > 10 µM (inactive)
COLO 205
  GI50: > 10 µM (inactive)
MCF7
  GI50: > 10 µM (inactive)
OVCAR-3
  GI50: > 10 µM (inactive)
SNB-19
  GI50: > 10 µM (inactive)

## COc1cc(=O)oc(/C=C/C=C/C=C/C(C)=C\C2(C)OC(C)C(C)(O)C2O)c1C (centres undefined)
NCI/ADR-RES
  GI50: > 100 µM (inactive)
HOP-62
  GI50: > 100 µM (inactive)
NCI-H226
  GI50: > 100 µM (inactive)
NCI-H460
  GI50: > 100 µM (inactive)
LOX IMVI
  GI50: > 100 µM (inactive)
DU-145
  GI50: > 100 µM (inactive)
Hs-578T
  GI50: 0.923 µM (active)
SK-MEL-28
  GI50: > 100 µM (inactive)
SN12C
  GI50: > 100 µM (inactive)
A498
  GI50: > 100 µM (inactive)
UO-31
  GI50: > 100 µM (inactive)
SR
  GI50: > 100 µM (inactive)
U-251
  GI50: > 100 µM (inactive)
SF-268
  GI50: > 100 µM (inactive)
A549
  GI50: > 100 µM (inactive)
UACC-257
  GI50: > 100 µM (inactive)
COLO 205
  GI50: > 100 µM (inactive)
MCF7
  GI50: > 100 µM (inactive)
OVCAR-3
  GI50: > 100 µM (inactive)
SNB-19
  GI50: > 100 µM (inactive)

## O=C(O)Cn1ncn(NC(=O)Cc2ccccc2)c1=S
NCI/ADR-RES
  GI50: > 10 µM (inactive)
HOP-62
  GI50: > 10 µM (inactive)
NCI-H460
  GI50: > 10 µM (inactive)
LOX IMVI
  GI50: > 10 µM (inactive)
DU-145
  GI50: > 10 µM (inactive)
Hs-578T
  GI50: > 10 µM (inactive)
SK-MEL-28
  GI50: > 10 µM (inactive)
SN12C
  GI50: > 10 µM (inactive)
A498
  GI50: > 10 µM (inactive)
UO-31
  GI50: > 10 µM (inactive)
SR
  GI50: > 10 µM (inactive)
U-251
  GI50: > 10 µM (inactive)
SF-268
  GI50: > 10 µM (inactive)
A549
  GI50: > 10 µM (inactive)
UACC-257
  GI50: > 10 µM (inactive)
COLO 205
  GI50: > 10 µM (inactive)
MCF7
  GI50: > 10 µM (inactive)
OVCAR-3
  GI50: > 10 µM (inactive)
SNB-19
  GI50: > 10 µM (inactive)

## Cc1cc(C)nc(NS(=O)(=O)c2ccc(NNC(=O)c3cccc4c(NNc5ccc(S(=O)(=O)Nc6nc(C)cc(C)n6)cc5)c5ccccc5nc34)cc2)n1
NCI/ADR-RES
  GI50: 68.5 µM (inactive)
HOP-62
  GI50: 27.8 µM (inactive)
NCI-H226
  GI50: 25.2 µM (inactive)
NCI-H460
  GI50: 20.6 µM (inactive)
LOX IMVI
  GI50: 17.2 µM (inactive)
DU-145
  GI50: 19.4 µM (inactive)
Hs-578T
  GI50: 23.4 µM (inactive)
SK-MEL-28
  GI50: 23.4 µM (inactive)
SN12C
  GI50: 31.1 µM (inactive)
UO-31
  GI50: 18.9 µM (inactive)
SR
  GI50: 20.5 µM (inactive)
U-251
  GI50: 22.9 µM (inactive)
SF-268
  GI50: 20.7 µM (inactive)
A549
  GI50: 30.5 µM (inactive)
UACC-257
  GI50: 31 µM (inactive)
COLO 205
  GI50: 20.9 µM (inactive)
MCF7
  GI50: 31.5 µM (inactive)
OVCAR-3
  GI50: 28.3 µM (inactive)
SNB-19
  GI50: 24.5 µM (inactive)

## CC(=O)Oc1ccc(-c2cc3ccccc3oc2=O)cc1OC(C)=O
NCI/ADR-RES
  GI50: 21.3 µM (inactive)
HOP-62
  GI50: 43.7 µM (inactive)
NCI-H226
  GI50: 53.1 µM (inactive)
NCI-H460
  GI50: 22.4 µM (inactive)
LOX IMVI
  GI50: 30.5 µM (inactive)
DU-145
  GI50: 24.9 µM (inactive)
Hs-578T
  GI50: 35.9 µM (inactive)
SK-MEL-28
  GI50: 43.5 µM (inactive)
SN12C
  GI50: 53.7 µM (inactive)
A498
  GI50: 35.6 µM (inactive)
UO-31
  GI50: 10.9 µM (inactive)
SR
  GI50: 8.63 µM (inactive)
U-251
  GI50: 32.7 µM (inactive)
SF-268
  GI50: 27.9 µM (inactive)
A549
  GI50: 14.8 µM (inactive)
UACC-257
  GI50: 24.4 µM (inactive)
COLO 205
  GI50: 43.5 µM (inactive)
MCF7
  GI50: 59.2 µM (inactive)
SNB-19
  GI50: 31.6 µM (inactive)
